Measured values taken from patent US8741659B2, “Composition for measuring the binding affinity between nucleic acid and test substance, and use thereof” (Osaka University, priority 2007, dated 2014).

Assays:
RRE = experiment: Fluorescence titration / evaluation of binding with RRE; set-up: species or system HIV-1; conditions: 1.0 μM compound; for reduction of fluorescence intensity (residual fluorescence intensity) on binding RRE: RRE 0.0-1.0 μM; for difference in quenching efficiency between RRE and double strand RNA: FIGS. 41 and 42
Description: In this Example, binding between RRE and X2S was evaluated by a method identical to the method in Example 2.
The […] of RRE is shown in SEQ ID NO: 8. […] RRE was purchased from Hokkaido System Science Co., Ltd.
Firstly, the X2S solution obtained in Example 1 was diluted with a cacodylate buffer solution (sodium cacodylate: 10 mM, pH 7.0; NaCl: 100 mM), so that a concentration of X2S became 2 μM. To the 2-μM X2S solution thus obtained, RRE was added in steps at 0 μM, 1 μM, 2 μM, 3 μM, 4 μM, 5 μM, 6 μM, and 8 μM. Further, a fluorescence intensity of the 2-μM X2S solution was measured at each concentration. The fluorescence intensity was measured in the same manner as in Example 2.
FIG. 7 is a view illustrating a result of evaluation of binding between X2S and RRE. In FIG. 7, the horizontal axis represents the fluorescence wavelength, whereas the vertical axis represents the fluorescence intensity. […] Other figures include such arrows for results of measurements of fluorescence intensities.
FIG. 8 is a view plotting the fluorescence intensities at a measured wavelength of 453 nm shown in the result illustrated in FIG. 7. The horizontal axis represents the concentration of RRE, whereas the vertical axis represents the fluorescence intensity.
(§1) Then, changes in fluorescence intensities were observed.
Firstly, X2S, X2S(3), X2S(4), X2S(5), X2S(2-Me), and 3,6-X2S(2) were respectively mixed with cacodylate buffer solutions (sodium cacodylate: 10 mM, pH 7.0; NaCl: 100 mM) each at 1.0 μM, so that solutions of the respective compounds were obtained. RRE used in this Example was the same as that used in Example 4. RRE was added to each of the solutions of the respective compounds in steps at 0.0 μM, 0.2 μM, 0.4 μM, 0.8 μM, and 1.0 μM.
(§2) Each of the solutions to which RRE was added was irradiated with light, and a fluorescence intensity was measured. A device used for measuring the fluorescence intensity was the same as that used in Example 13. A variation in a slit width was also the same as that in Example 14.
FIG. 39 is a graph illustrating a relationship between a concentration of RRE added and a fluorescence intensity of each compound. Further, FIG. 39 is also a view plotting the fluorescence intensities of the respective fluorescence peaks shown in the results illustrated in FIGS. 33 to 38. FIG. 40 is a view plotting residual fluorescence intensities (%) which were obtained based on the results shown in FIGS. 33 to 38, assuming that the fluorescence intensities of the respective fluorescence peaks observed at a concentration of 0.0 μM of RRE were 100%. In each of FIGS. 39 and 40, the horizontal axis represents the concentration of the RNA. In FIG. 39, the vertical axis represents the fluorescence intensity. In FIG. 40, the vertical axis represents the residual fluorescence intensity (%).
FIG. 41 is a view plotting values obtained by dividing (i) the residual fluorescence intensities (%) obtained in the case involving use of the double strand RNA by (ii) the residual fluorescence intensities (%) obtained in the case involving use of RRE. That is, FIG. 41 is a view plotting values obtained by dividing (i) the residual fluorescence intensity (%) shown in FIG. 32 by (ii) the residual fluorescence intensities (%) shown in FIG. 40. FIG. 42 is a view plotting values obtained by subtracting (i) the residual fluorescence intensities (%) obtained in the case involving use of RRE from (ii) the residual fluorescence intensities (%) obtained in the case involving use of the double strand RNA. That is, FIG. 42 is a view plotting values obtained by subtracting (i) the residual fluorescence intensities (%) shown in FIG. 40 from (ii) the residual fluorescence intensities (%) shown in FIG. 32.
In this Example, 1-Pyrenemethanamide, hydrochloride was caused to bind to a double strand RNA or RRE. Then, a change in a fluorescence intensity was observed. […]

[1] = tested on: double strand RNA (SEQ ID NO: 1 hybridized with SEQ ID NO: 3); experiment: Fluorescence titration experiment using double strand RNA; assay type: binding; conditions: 1.0 μM compound, double strand RNA 0.0-1.0 μM
Description: as §1
Firstly, X2S, X2S(3), X2S(4), X2S(5), X2S(2-Me), and 3,6-X2S(2) were respectively mixed with cacodylate buffer solutions (sodium cacodylate: 10 mM, pH 7.0; NaCl: 100 mM) each at 1.0 μM, so that solutions of the respective compounds were obtained.
As the double strand RNA, an RNA as in FIG. 2 having N representing no base was used. Specifically, an RNA formed by hybridization of an RNA having the base sequence shown in SEQ ID NO: 1 with an RNA having the base sequence shown in SEQ ID NO: 3 was used. The RNA was added to each of the solutions of the above compositions in steps at 0.0 μM, 0.2 μM, 0.4 μM, 0.8 μM, and 1.0 μM.
as §2, with “the RNAs were” for “RRE was”, “set to ±3.0 nm during” for “also”, “excitation, and to ±3.0 nm during the measurement of fluorescence.” for “same as that in Example 14.”
In each of FIGS. 25 to 30, the horizontal axis represents the fluorescence wavelength, whereas the vertical axis represents the fluorescence intensity.
FIG. 31 is a graph illustrating a relationship between a concentration of the double strand RNA added and a fluorescence intensity of each compound. […]

| SMILES | reduction of fluorescence intensity (residual fluorescence intensity) on binding RRE (RRE) | difference in quenching efficiency between RRE and double strand RNA (RRE) | reduction of fluorescence intensity (residual fluorescence intensity) on binding double strand RNA [1] |
| --- | --- | --- | --- |
| CC(N)COc1ccc2oc3ccc(OCC(C)N)cc3c(=O)c2c1 (stereo not drawn) [X2S(3), 2,7-bis(2-aminopropoxy)xanthen-9-one] | particularly high reduction rates | greatest | particularly high reduction rates |
| CCC(N)COc1ccc2oc3ccc(OCC(N)CC)cc3c(=O)c2c1 (stereo not drawn) [X2S(4), 2,7-bis(2-aminobutoxy)xanthen-9-one] | particularly high reduction rates | greatest | particularly high reduction rates |
